The values that follow come from patent US9809640B2, “ApoE peptide dimers and uses thereof” (priority 2010, dated 2017).

Data set [1] deals with MDA-MB-231 breast cancer cells. The format is cell-based. The following applies: 48 hours, MTT. On the procedure: (§1) FIG. 14A: Dose response curve of COG445 on proliferation of U87 (open circles) and MDA-MB-231 (filled circles) cells as measured by MTT reduction. FIG. 14B: Dose response curve of COG445 on proliferation of MDA-MB-231 cells as measured by cell count.
Next, we examined the potency of an ApoE peptide dimer versus the monomeric form on proliferation of the MDA-MB-231 breast cancer cell line. MDA-MB-231 cells were treated with various concentrations of either COG435 (monomer; SEQ ID NO: 90) or COG493 (a BMOE-linked dimer of COG 435) peptides for 48 hours. Following peptide treatment, cells were quantified using a MTT assay.
(§2) Because COG445 inhibited Akt activation and downstream signaling, we examined the effects of COG445 on cellular proliferation. Adherent MB231 and U87 cells were grown for ˜24 hours in the presence of COG445 and cellular proliferation was measured by MTT reduction. […] Furthermore, COG445 inhibited MB231 cellular proliferation as determined by cell count (FIG. 14B). Approximately 6×10^4 cells were plated in growth media (RPMI+10% FBS) for 24-hours with increasing concentrations of COG445. […] However at concentrations ≧1 μM COG445, there appears to be a loss of cells. This is partially explained by decreased proliferation, although it is possible that the rate of cellular degradation was increased in the presence of COG445.

A short description of data set [2]: Mouse toxicity, maximum tolerated dose by intravenous injection. As to conditions: in vivo, maximum dose by intravenous injection without deaths after 24 hrs. The text has this: (§3) We also evaluated the various peptides for efficacy in suppressing nitric oxide production induced by LPS stimulation of BV2 microglia cells as a measure of anti-inflammatory activity as well as the maximum dose tolerated in mice (Table I and FIG. 6A). For the LPS assay, EC50 is the concentration of compound that caused a 50% suppression of nitric oxide release from BV2 cells following LPS stimulation. For mouse toxicity, MTD is the maximum dose of the compound that can be given by intravenous injection without causing deaths after 24 hrs. […] Coupling the ApoE domain to a protein transduction domain further enhanced the potency of the dimers.

The test system of another data set is U87MG glioblastoma cells. The format is cell-based. The following applies: MTT. On the procedure: as §1
To determine whether ApoE peptide dimers were cytotoxic to other types of cancer, we evaluated the effect of three different ApoE BMOE-linked peptide dimers (COG449, COG492, COG493; see Table I) on the growth characteristics of U87MG glioblastoma cells. Various concentrations of COG449, COG492, COG493 or Sorafenib were used to treat U87MG glioblastoma cells and viable cells were quanititated using MTT. Sorafenib, which has previously been reported to be cytotoxic to glioblastoma cells (Yang et al. (2010) Mol Cancer Ther., Vol. 9(4):953-962), was used as a positive control.
as §2

Another data set concerns normal B-cells. The data set can be described thus: Cytotoxicity on normal B-cells from volunteers. The format is cell-based, human. As to conditions: normal B-cells from volunteers.
Another data set deals with B-CLL cells. In words: Cytotoxicity on patient-derived B-CLL cells (MTS assay). The text has this:
FIG. 5A: Dose response curves for COG449 cytotoxicity on CLL cells from 4 leukemia patients. Human CLL cells were isolated from blood samples and assayed for COG449 cytotoxicity. […] FIG. 5B: Dose response curves for COG445 on CLL cells from 7 patients or normal B-cells from 5 patients. Human CLL cells and PBMC were isolated and assayed for cytotoxicity of COG445.
Blood from CLL patients was collected and CD5+/CD19+ CLL cells were isolated using the RosetteSep™ Human B-Cell Enrichment Cocktail, according to the manufacturer's instructions, and treated with COG compounds. Compounds were applied to B-CLL cells (2.5×10^5 cells/well in a 96 well plate), after which the cells were treated for 72 hours.
Normal B-cells from volunteers and B-CLL cells from patients are isolated using the RosetteSep™ Human B Cell Enrichment Cocktail according to the manufacturer's instructions. This method depletes whole blood of T cells, monocytes, and NK cells using a proprietary antibody cocktail that cross-links unwanted cells in human whole blood to multiple red blood cells (RBCs) forming immunorosettes. This increases the density of the unwanted (rosetted) cells, such that they pellet along with the free RBCs when centrifuged over a buoyant density medium such as Ficoll-Paque®. This leaves the highly enriched B-cell or B-CLL cells at the interface between Ficoll and the plasma. The antibodies in the cocktail contain […] and anti-CD16 antibodies to remove T cells, monocytes, and NK cells, respectively. The purity of these B-cell and B-CLL preparations is then determined by flow cytometry.
For cytotoxicity assays, 3×10^6 CLL cells/well are cultured in 24 well tissue culture plates in 1.5 mL of Hybridoma SFM™ (Gibco, Long Island, N.Y.) as described by Levesque et al. (2001, 2003). All cultures are incubated at 37° C., 5% CO2 in air.
On the technique in general: Tetrazolium dyes change colour on reduction, which living cells bring about.

A short description of data set [3]: Pharmacokinetics of subcutaneously injected COG1410. As to conditions: plasma, sc. On the procedure: Male C57Bl/6 mice (20-24 g, Charles River, Raleigh, N.C.) are injected with a peptide dimer subcutaneously at a volume of 5 mL/kg in the scruff of the neck. Ten minutes before the desired timepoint, mice are anesthetized and at the desired timepoint blood is drawn by cardiac puncture. Blood from at least 4 mice is used for each timepoint with the samples collected at 5, 10, 15, 30, 45, 60, 90, 120, 180 and 240 minutes for the initial analysis. The samples are processed and the pharmacokinetic analysis is completed. […] In the event that the half life has not been reached, a repeat of the experiment is performed that uses one timepoint before the observed Tmax, a timepoint at the observed Tmax and timepoints extending long enough to adequately determine the half life based on extrapolation of the previous observations of clearance from the plasma. Analysis of three concentrations of the peptide dimer is also performed to determine if there is a dose dependent effect on the pharmacokinetic parameters.

Data set [4] has as its system BV2 microglia cells. In words: LPS-induced nitric oxide production in BV2 microglia cells. As to conditions: 50% suppression of nitric oxide release from BV2 cells following LPS stimulation. In kind it is cell-based. On the procedure:
FIG. 1. COG 112 inhibits LPS-induced production of inflammatory cytokines in BV2 microglia cells. Inhibition curves for COG112 in the production of NO (green squares), TNFα (red diamonds), and IL-6 (blue triangles) by BV2 microglia. Compounds were added to the final concentrations indicated on the graph along with 100 ng/mL of LPS. After 24 hours the media was removed and assayed by two-site ELISA (BioSource) and quantitated relative to a standard curve on the same plate.
FIG. 3. NO Inhibition curve for COG449. BV2 microglia were treated with COG449 at the final concentrations indicated on the graph, along with 100 ng/mL of LPS. After 24 hours the media was removed and assayed by two-site ELISA (BioSource) and quantitated relative to a standard curve on the same plate.
as §3
Low passage BV2 microglial cell cultures are maintained in 10% HI (Heat Inactivated) FBS DMEM media (supplemented with MEM NEAA (Non-Essential Amino Acids), sodium pyruvate and Pen-Strep) and continuously cultured until needed. To determine the IC50 values for NO production, peptides are added to BV2 cultures in 1% HI FBS DMEM media (supplemented with MEM NEAA and sodium pyruvate) at a range of final assay concentrations from 1.0 μM in 2 fold dilutions to 7.8 nM followed immediately by addition of LPS (100 ng/mL final concentration) as previously described (Laskowitz et al. (2001) Exp Neurol, Vol. 167(1): 74-85). After incubating for 18±1 hours, conditioned media is removed for analysis of nitrite (the stable oxidation product of released nitric oxide) by the Griess colorimetric assay (Promega). Remaining cells are assayed for viability in an MTT assay (Promega) and the nitrite assay values are normalized for each concentration using the percent viability of cells in the MTT assay. […] Typically, the absence of LPS exposure to BV2 cells results in levels below the limit of detection in our assays. Similarly, addition of any of the peptides up to 25 μM without LPS results in undetectable NO levels.

Data set [5] relates to BV2 microglia cells. The following applies: previously shown; cited from earlier work.

Where two headings read alike, the source gives them in different places. Non-standard residues stand in square brackets, D forms with d. Residues, ends and D or L forms follow the SMILES beside them. No end group written: not given here. Arg(NO2) = N=C(NCCC[C@H](N)C(=O)O)N[N+](=O)[O-]; Aib = CC(C)(N)C(=O)O Some results are limits rather than exact numbers.

A word on the MTD: it is the largest dose that counted as tolerated. Low values mean a narrow tolerated range, high ones a wide tolerated range. In general, EC50 refers to the concentration needed to bring the measured effect to its halfway point. A word on the Tmax: it is the time from dosing to the highest level. For orientation: half-life means the time in which the quantity being followed falls by half.

From the text for normal B-cells: Normal B-cells from volunteers and B-CLL cells from patients are isolated using the RosetteSep™ Human B Cell Enrichment Cocktail according to the manufacturer's instructions. This method depletes whole blood of T cells, monocytes, and NK cells using a proprietary antibody cocktail that cross-links unwanted cells in human whole blood to multiple red blood cells (RBCs) forming immunorosettes. This increases the density of the unwanted (rosetted) cells, such that they pellet along with the free RBCs when centrifuged over a buoyant density medium such as Ficoll-Paque®. This leaves the highly enriched B-cell or B-CLL cells at the interface between Ficoll and the plasma. The antibodies in the cocktail contain anti-CD14, anti-CD2 and anti-CD16 antibodies to remove T cells, monocytes, and NK cells, respectively. The purity of these B-cell and B-CLL preparations is then determined by flow cytometry. Preparations typically average less than 2% CD3+ T-cells and less than 0.5% CD14+ monocytes. In the case of B-CLL cell isolation, we routinely obtain preparations that contain less than 1.5% normal CD19+/CD5− B-cells using this method.

As to `CC(=O)N[C@@H](Cc1c[nH]c2ccccc12)C(=O)N[C@@H](CCCCN)C(=O)N[C@@H](CCCCN)C(=O)N[C@@H](CSC1CC(=O)N(CCN2C(=O)CC(SC[C@H](NC(=O)[C@H](CCCCN)NC(=O)[C@H](CCCCN)NC(=O)[C@H](Cc3c[nH]c4ccccc34)NC(C)=O)C(=O)N[C@@H](CC(C)C)C(=O)N[C@@H](CCCNC(=N)N)C(=O)N[C@H](C(=O)N[C@@H](CCCNC(=N)N)C(=O)N[C@@H](CC(C)C)C(=O)N[C@@H](C)C(=O)N[C@@H](CO)C(=O)N[C@@H](Cc3c[nH]cn3)C(=O)N[C@@H](CC(C)C)C(=O)N[C@@H](CCCNC(=N)N)C(=O)N[C@@H](CCCCN)C(=O)N[C@@H](CC(C)C)C(=O)N[C@@H](CCCNC(=N)N)C(=O)N[C@@H](CCCCN)C(=O)N[C@@H](CCCNC(=N)N)C(=O)N[C@@H](CC(C)C)C(=O)N[C@@H](CC(C)C)C(N)=O)C(C)C)C2=O)C1=O)C(=O)N[C@@H](CC(C)C)C(=O)N[C@@H](CCCNC(=N)N)C(=O)N[C@H](C(=O)N[C@@H](CCCNC(=N)N)C(=O)N[C@@H](CC(C)C)C(=O)N[C@@H](C)C(=O)N[C@@H](CO)C(=O)N[C@@H](Cc1c[nH]cn1)C(=O)N[C@@H](CC(C)C)C(=O)N[C@@H](CCCNC(=N)N)C(=O)N[C@@H](CCCCN)C(=O)N[C@@H](CC(C)C)C(=O)N[C@@H](CCCNC(=N)N)C(=O)N[C@@H](CCCCN)C(=O)N[C@@H](CCCNC(=N)N)C(=O)N[C@@H](CC(C)C)C(=O)N[C@@H](CC(C)C)C(N)=O)C(C)C` (stereo partly shown) [COG493, WKK-C-LRVRLASHLRKLRKRLL (SEQ ID NO: 90) <BMOE> WKK-C-LRVRLASHLRKLRKRLL (SEQ ID NO: 90)], the “cytotoxicity to MDA-MB-231 cells, dimer versus monomer COG435” value in data set [1] is “significantly more cytotoxic”. Moreover, in data set [2], the maximal tolerated dose (MTD) at 24 h turned out to be 20 mg/kg. In addition, the “cytotoxicity to U87MG cells” value in the data set on U87MG glioblastoma cells is reported as “cytotoxic”.

The compound `CC(=O)N[C@@H](C)C(=O)N[C@@H](CO)C(=O)NC(C)(C)C(=O)N[C@@H](CC(C)C)C(=O)N[C@@H](CCCNC(=N)N)C(=O)N[C@@H](CCCCN)C(=O)N[C@@H](CC(C)C)C(=O)NC(C)(C)C(=O)N[C@@H](CCCCN)C(=O)N[C@@H](CCCNC(=N)N)C(=O)N[C@@H](CC(C)C)C(=O)N[C@@H](CC(C)C)C(N)=O` [COG1410, AS(Aib)LRKL(Aib)KRLL (SEQ ID NO: 5)] (Ac-AS[Aib]LRKL[Aib]KRLL-NH2; N-terminus and C-terminus assumed) returned an MTD at 24 h in data set [2] of 15 mg/kg. Further, the EC50 in the data set with normal B-cells was > 20 µM; in the data set with B-CLL cells (read-out: EC50 anti-CLL cytotoxic activity, B-CLL cells), 5.7 µM. The Tmax in data set [3] is 20 to 30 min. This compound also displayed a half-life in data set [3] of 60 to 90 min.

For the compound `CC(=O)N[C@@H](CC(C)C)C(=O)N[C@@H](CCCNC(=N)N)C(=O)N[C@H](C(=O)N[C@@H](CCCNC(=N)N)C(=O)N[C@@H](CC(C)C)C(=O)N[C@@H](C)C(=O)N[C@@H](CO)C(=O)NC(C)(C)C(=O)N[C@@H](CC(C)C)C(=O)N[C@@H](CCCCN)C(=O)N[C@@H](CCCNC(=N)N)C(=O)N[C@@H](CC(C)C)C(=O)N[C@@H](CCCNC(=N)N)C(=O)N[C@@H](CCCCN)C(=O)N[C@@H](CCCNC(=N)N[N+](=O)[O-])C(=O)N[C@@H](CC(C)C)C(=O)N[C@@H](CC(C)C)C(N)=O)C(C)C` [COG248, LRVRLAS(Aib)LKRLRK(nitroR)LL (SEQ ID NO: 4)] (Ac-LRVRLAS[Aib]LKRLRK[Arg(NO2)]LL-NH2), the “Fold Change” value in the data set on B-CLL cells (CLL EC50 relative to COG056 (rev133) = 1.0) was 5.5. The concentration giving a half-maximal response (EC50) in the data set on B-CLL cells (read-out: CLL EC50, B-CLL cells from patients, 72 hours, MTS assay) amounted to 2.3 µM; in the data set with BV2 microglia cells [4] it was 0.9 µM. Also, the “anti-inflammatory activity relative to COG133 in NO release assays” value in the data set on BV2 microglia cells [5] is “improved anti-inflammatory activity”.

In the case of “LRVRLAS(Aib)LRKLR(K-Ac)RLL (SEQ ID NO: 35) (LRVRLAS[Aib]LRKLRK(Ac)RLL) [COG345]”, the “anti-inflammatory activity relative to COG133 in NO release assays” value with BV2 microglia cells [5] was “improved anti-inflammatory activity”.
